# In patent US20100040568A1, “Steroidal compounds as melanogenesis modifiers and uses thereof” (SkinMedica, Inc., priority 2008, published 2010):
# “Also recorded” adds a separate entry of the source.
# What was measured:
# [1] = test system: African-American skin equivalent (MEL-B); experiment: MelanoDerm pigmentation assay, African-American skin equivalent; type: cell-based, human
# Description: (§1) MelanoDerm™, made by MatTek Corp., is a viable reconstituted three-dimensional human skin equivalent containing normal melanocytes and keratinocytes that are derived from African-American (MEL-B), Asian (MEL-A) or Caucasian (MEL-C) donors. Both MEL-A and MEL-B tissues were used in the current study, and they were maintained in the NMM-113 medium as recommended by the manufacturer.
# Conessine (from Sigma) was dissolved in 30% ethanol: 70% propylene glycol to a final concentration of 1.0 mM (equal to 356.6 μg/ml), and this was maintained constant and used on all samples tested. A 25 μl of its aliquot was applied topically to the MelanoDerm™ tissue (MEL-B) on Days 0, 1, 3, 6, 8 and 10. The MelanoDerm™ tissues were fed every other day with 5 ml fresh NMM-113. Prior to each application, the tissues were washed with 1 ml PBS to remove any residual test compound. Tissues were fixed on Days 10 and 13 for microscopic analysis and histological evaluation. In addition, duplicate tissues were frozen on Days 10 and 13 for the melanin assay.
# (§2) The experiments were repeated twice on both MEL-A and MEL-B tissues from different lots to make sure that the results are reproducible (study 1 or 2). For each experiment, six tissues were treated with conessine, and six were treated with […] (30% ethanol: 70% PEG) or arbutin if applicable. For MEL-B, on day 10, three tissues under each treatment condition were taken out, and one was used for histological studies and the other two were used for the melanin assay. The same protocol was followed with the MEL-B samples after 13 days' treatment and MEL-A after either 13 or 16 days' treatments.
# (§3) Procedure 1: the effects of conessine on melanin synthesis in MEL-A or B were evaluated by light microscopy (views from the top surface of the tissue). Procedure 2: the distribution of melanin in the treated-MEL-A or B was accessed by image analysis using Fontana-Masson stained histological sections (views from the side of the tissue).
# (§4) MelanoDerm™, made by MatTek Corp., is a viable reconstituted three-dimensional human skin equivalent containing normal melanocytes and keratinocytes that are derived from African-American (MEL-B), Asian (MEL-A) or Caucasian (MEL-C) donors. It has human skin-like structure and undergoes progressive tissue darkening over the course of 2-3 weeks. MelanoDerm™ provides a useful in vitro means for evaluation of agents that modulate pigmentation. Human skin equivalent models such as MelanoDerm™ provide an alternative to clinical and animal testing for evaluating the effects of putative bioactive compounds on mammalian pigmentation. MelanoDerm™ is considered a more physiologically relevant model than melanocytes alone or melanocyte-keratinocyte co-cultures. Both MEL-A and MEL-B tissues were used in the current study, and they were maintained in the NMM-113 medium as recommended by the manufacturer. In this model, substantial accumulation of newly synthesized melanin occurs over a two to three week period.
# (§5) Conessine and Licorice extract were dissolved in 30% ethanol: 70% propylene glycol (PEG) to a final concentration of 0.036% (0.36 mg/ml). A 25 μl aliquot of each compound was applied topically to the Asian MelanoDerm™ tissue (MEL-A) on Days 0, 1, 3, 6, 8, 10 and 13. The MelanoDerm™ tissues were fed every other day with 5 ml fresh NMM-113. Prior to each application, the tissues were washed with 1 ml PBS to remove any residual test compound. Tissues were fixed on Days 13 and 16 for microscopic analysis and histological evaluation. In addition, duplicate tissues were frozen on Days 13 and 16 for melanin assay. 30% ethanol: 70% PEG was used as negative control. Cell viability was measured in accordance with the manufacturer's instructions using the MTT assay kit (MatTek Corp., Ashland, Mass. 01721). One MEL-A tissue from each condition was harvested on day 2 and 7, and MTT assay was performed. Similar experiments were performed on MEL-B.
# [2] = test system: Asian skin equivalent (MEL-A); experiment: MelanoDerm pigmentation assay, Asian skin equivalent; type: cell-based, human
# From the text: as §1
# Tissues were taken out on Days 13 and 16 for the various assays. 30% ethanol: 70% propylene glycol was used as a negative control and the well-known pigmentation inhibitor, arbutin (at concentration of 3 mg/ml), was used as a positive control.
# as §2, §3, §4, §5
# Quantitative melanin assay was performed on the treated MEL-A tissues.
# [3] = test system: Tyrosinase gene family proteins; experiment: Immunoblot of tyrosinase gene family proteins in melan-a cells; type: cell-based, murine; settings: various concentrations, 72 hours
# Description: Melan-a cells were incubated with various concentrations of conessine for 72 hours. Cell lysates were prepared and separated by 7.5% sodium dodecyl sulfate-polyacrylamide gel and transferred to Immobilon-P membranes. Tyrosinase gene family proteins were detected with antibodies against each protein.
# tyrosinase = biological target: T1, tyrosinase (Mus musculus, UniProt P11344); experiment: Tyrosinase activity assay on melan-a cell lysates; type: biochemical, murine; settings: for direct inhibition of tyrosinase enzymatic activity: melan-a cell lysates (10 μg) pre-incubated with conessine 10 μM for 30 minutes
# T1 construct: endogenous in cells; host or cells: melan-a cells (murine melanocytes), cell lysate
# T1 sequence (P11344 19-533): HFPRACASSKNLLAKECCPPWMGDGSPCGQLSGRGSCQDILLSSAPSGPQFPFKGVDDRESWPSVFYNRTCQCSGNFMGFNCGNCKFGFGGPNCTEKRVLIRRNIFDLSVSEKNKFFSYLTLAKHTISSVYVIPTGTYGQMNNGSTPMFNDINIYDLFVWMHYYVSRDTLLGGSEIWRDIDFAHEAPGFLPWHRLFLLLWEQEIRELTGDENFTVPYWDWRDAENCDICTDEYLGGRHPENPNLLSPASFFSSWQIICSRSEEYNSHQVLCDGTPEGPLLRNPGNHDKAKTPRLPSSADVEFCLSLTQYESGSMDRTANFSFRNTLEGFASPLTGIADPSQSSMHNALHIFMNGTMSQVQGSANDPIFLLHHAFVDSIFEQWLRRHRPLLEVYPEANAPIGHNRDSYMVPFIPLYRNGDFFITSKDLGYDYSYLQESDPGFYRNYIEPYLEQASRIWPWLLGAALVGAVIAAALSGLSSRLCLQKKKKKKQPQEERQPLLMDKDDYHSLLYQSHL
# Description: The effect of conessine on tyrosinase activity was studied in vitro using melan-a cell lysates.
# In one example, melan-a cell lysates (10 μg) were pre-incubated with either diluent, conessine (10 μM) or phenylthiourea (PTU, 300 μM, a known tyrosinase inhibitor) for 30 minutes at room temperature. Tyrosinase activity assay was performed in triplicate on melan-a cell lysates as previously described (Orlow et al. 1990).
# [4] = 0.036% topical, day 13, 8 sections
# [5] = arbutin 3 mg/ml, conessine and licorice 0.36 mg/ml, extract 1:50
structure (smiles),measurement,setting,value
"CC1C2CCC3C4CC=C5CC(N(C)C)CCC5(C)C4CCC32CN1C (centres unmarked) [Compound 1, Conessine]","decrease of melanin content (Fontana-Masson staining, image analysis)","[1]; 1.0 mM topical, days 10 and 13, compared with control-treated",50-60%
same,colour by light microscopy,[1]; 0.036% topical,considerable decrease in the color of MEL-B
same,decrease of melanin content (quantitative melanin assay),"[1]; 0.036% topical, 10 or 13 days",about 30%
same,"melanin content compared to the vehicle-treated tissues (Fontana-Masson sections, quantitative analysis)","[1]; 0.036% topical, day 10, 8 sections",73.61%
same,"melanin content compared to the vehicle-treated tissues (Fontana-Masson sections, quantitative analysis)",[1]; [4],62.43%
same,effectiveness as depigmenting agent (comparison),[1]; [5],more effective than either Licorice extract or arbutin
same,melanin content by Fontana-Masson staining,"[1]; conessine 0.36 mg/ml, extract diluted 1:50, 25 μl topical, days 10 and 13",decreases significantly
same,decreased melanin content (quantitative melanin assay),"[2]; 0.036% topical, both 13 and 16 days, compared to vehicle-treated",30-40%
same,"melanin content compared to the vehicle-treated tissues (Fontana-Masson sections, quantitative analysis)",[2]; [4],49.90%
same,"melanin content compared to the vehicle-treated tissues (Fontana-Masson sections, quantitative analysis)","[2]; 0.036% topical, day 16, 8 sections",42.31%
same,effectiveness as depigmenting agent (comparison),[2]; [5],more effective than either Licorice extract or arbutin
same,pigmentation by light microscopy,"[2]; conessine 0.036% (0.36 mg/ml), extract diluted 1:50, 25 μl topical, days 13 and 16",strikingly decreased; also recorded: becomes lighter
same,melanin content by Fontana-Masson staining,"[2]; conessine and licorice 0.36 mg/ml, extract diluted 1:50, 25 μl topical, days 13 and 16",significant decrease in the relative melanin content
same,cellular levels of tyrosinase family proteins,[3],increases cellular levels of tyrosinase family proteins in a dose-dependent manner
same,tyrosinase activity of lysates of pre-treated cells,tyrosinase; cells pre-incubated with conessine for 72 hrs before harvesting,No obvious difference in tyrosinase activity
same,direct inhibition of tyrosinase enzymatic activity,tyrosinase; listed as Conessine,did not directly inhibit tyrosinase activity
same,direct inhibition of tyrosinase enzymatic activity,tyrosinase; listed as conessine,does not directly inhibit tyrosinase enzymatic activity
